Tests used:
[1] = Volatilization from halogen bulb; purity of the aerosol by reverse-phase HPLC; type: physicochemical; details: thermal vapor from coated aluminum foil on 300 watt halogen tube, 60 V 5-12 s or 90 V 2.5-3.5 s; HPLC at 225 nm
Procedure: A solution of drug in approximately 120 μL dichloromethane is coated on a 3.5 cm×7.5 cm piece of aluminum foil (precleaned with acetone). The dichloromethane is allowed to evaporate. The coated foil is wrapped around a 300 watt halogen tube (Feit Electric Company, Pico Rivera, Calif.), which is inserted into a glass tube sealed at one end with a rubber stopper. Running 60 V of alternating current (driven by line power controlled by a variac) through the bulb for 5-12 s or 90 V for 2.5-3.5 s affords thermal vapor (including aerosol), which is collected on the glass tube walls. (When desired, the system is flushed through with argon prior to volatilization.) Reverse-phase HPLC analysis with detection by absorption of 225 nm light is used to determine the purity of the aerosol.
Table 1, which follows, provides data from drugs volatilized using the above-recited general procedure.

[2] = Hydrolysis studies of drug esters in PBS solution (pH 7.5); type: physicochemical; details: PBS pH 7.5, room temperature, read-out: t1/2 for hydrolysis
Procedure: Drug ester (20 μL, 10 mM acetonitrile) is added to 1 mL PBS solution (pH 7.5) at room temperature. At intermittent time points, an aliquot of the resulting mixture is injected into an HPLC to obtain the ratio of drug ester to drug acid or drug alcohol. An Arrhenius plot of the data provides a t1/2 for hydrolysis.

[3] = Human serum hydrolysis studies of drug esters; type: in vitro ADME; details: 37° C., read-out: t1/2 for hydrolysis
Procedure: Human serum (2.34 mL) is placed in a test tube. To the serum is added 260 μL of a 10 mM solution of drug ester in acetonitrile. The tube is placed in a 37° C. incubator, and at various time points a 500 μL aliquot is removed. The aliquot is mixed with 500 μL methanol, and the mixture is vortex mixed and centrifuged. A sample of the supernatant is analyzed by HPLC obtain the ratio of drug ester to drug acid or drug alcohol. An Arrhenius plot of the data provides a t1/2 for hydrolysis.

| Compound | AEROSOL PURITY [1] [%] | half-life at 0.196 mM [2] [h] | half-life at 1 mM [3] [h] |
| --- | --- | --- | --- |
| CC(=O)Oc1ccc2c(c1OC(C)=O)-c1cccc3c1C(C2)N(C)CC3.Cl (stereo not drawn) [Apomorphine Diacetate-HCl] | 94 |  |  |
| CCOC(=O)Cc1c(C)n(C(=O)c2ccc(Cl)cc2)c2ccc(OC)cc12 [Indomethacin Ethyl Ester] | >99 |  |  |
| COC(=O)Cc1c(C)n(C(=O)c2ccc(Cl)cc2)c2ccc(OC)cc12 [Indomethacin Methyl Ester] | 99 |  |  |
| COc1ccc2c(c1)c(CC(=O)OCCN(C)C)c(C)n2C(=O)c1ccc(Cl)cc1 [Indomethacin Norcholine Ester] | 100 |  |  |
| CCOC(=O)C(C)c1cccc(C(=O)c2ccccc2)c1 (stereo not drawn) [Ketoprofen Ethyl Ester] | 99.65 | > 48 | 3.73 |
| COC(=O)C(C)c1cccc(C(=O)c2ccccc2)c1 (stereo not drawn) [Ketoprofen Methyl Ester] | 99 | > 48 | 2.4 |
| CC(C(=O)OCCN(C)C)c1cccc(C(=O)c2ccccc2)c1 (stereo not drawn) [Ketoprofen Norcholine Ester] | 100 |  |  |
| CCOC(=O)C1CCn2c(C(=O)c3ccccc3)ccc21 (stereo not drawn) [Ketorolac Ethyl Ester] | >99 |  |  |
| COC(=O)C1CCn2c(C(=O)c3ccccc3)ccc21 (stereo not drawn) [Ketorolac Methyl Ester] | 100 |  |  |
| CN(C)CCOC(=O)C1CCn2c(C(=O)c3ccccc3)ccc21 (stereo not drawn) [Ketorolac Norcholine Ester, 2-(N,N-Dimethylamino)Ethyl Ester of Ketorolac] | 100 |  |  |
| Apomorphine Diacetate | 96.9 |  |  |

— patent US7988952B2, “Delivery of drug esters through an inhalation route” (Alexza Pharmaceuticals, Inc., priority 2001, dated 2011)
